Data taken from the supplement of paper PMC10307832.

Legend:
Assay in all cases: relative viability (nuclei count vs DMSO), 5 days (fraction); higher = more cells survive
[1] = compound: CC1=CN2C(=O)C=C(N=C2C(=C1)C(C)NC3=CC=CC=C3)N4CCOCC4 [TGX 221] + O=C(c1cc(Cc2n[nH]c(=O)c3ccccc23)ccc1F)N1CCN(C(=O)C2CC2)CC1 [Olaparib] (partner 8 µM)
Procedure, shortened: (§1)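 Relative viability is defined as nuclei in treated wells over nuclei in vehicle wells. Duplicate plates were run and medians reported. Lung cancer cell lines in 1536-well plates were dosed by pin tool one day after seeding, with one drug or with a fixed anchor-drug dose plus five library-drug doses (not always all listed) in √10 steps, and nuclei were counted after 5 days.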

[2] = compound: CC1=CN2C(=O)C=C(N=C2C(=C1)C(C)NC3=CC=CC=C3)N4CCOCC4 [TGX 221] + N=C(N)NC(=N)NCCc1ccccc1 [Phenformin] (partner 250 µM)
Procedure, shortened: as §1

[3] = compound: C1=CC=C(C(=C1)C2=CC=C(C=C2)C3=CSC4=C3C(=C(C(=O)N4)C#N)O)O + O=C(c1cc(Cc2n[nH]c(=O)c3ccccc23)ccc1F)N1CCN(C(=O)C2CC2)CC1 [Olaparib] (partner 8 µM)
Procedure, shortened: as §1

[4] = compound: CC1=CN2C(=O)C=C(N=C2C(=C1)C(C)NC3=CC=CC=C3)N4CCOCC4 [TGX 221] + Nc1nc2[nH]cc(CCc3ccc(C(=O)N[C@@H](CCC(=O)O)C(=O)O)cc3)c2c(=O)[nH]1 [Pemetrexed] (partner 0.2 µM)
Procedure, shortened: as §1

Cell Line	relative viability ([1]; first compound 0.08 µM)	relative viability ([1]; first compound 0.253 µM)	relative viability ([1]; first compound 0.8 µM)	relative viability ([1]; first compound 2.53 µM)	relative viability ([1]; first compound 8 µM)	relative viability ([2]; first compound 0.08 µM)	relative viability ([2]; first compound 0.253 µM)	relative viability ([2]; first compound 0.8 µM)	relative viability ([2]; first compound 2.53 µM)	relative viability ([2]; first compound 8 µM)	relative viability ([3]; first compound 0.08 µM)	relative viability ([3]; first compound 0.253 µM)	relative viability ([3]; first compound 0.8 µM)	relative viability ([3]; first compound 2.53 µM)	relative viability ([3]; first compound 8 µM)	relative viability ([4]; first compound 0.08 µM)	relative viability ([4]; first compound 0.253 µM)	relative viability ([4]; first compound 0.8 µM)	relative viability ([4]; first compound 2.53 µM)	relative viability ([4]; first compound 8 µM)
NCI-H2342	0.424	0.417	0.404	0.466	0.463	0.445	0.57	0.583	0.559	0.601	0.475	0.53	0.432	0.517	0.395	0.681	0.792	0.748	0.708	0.754
SK-LU-1	0.453	0.47	0.442	0.42	0.432	0.542	0.502	0.498	0.491	0.477	0.465	0.431	0.435	0.608	0.408	0.923	0.89	0.907	0.898	0.838
NCI-H2023	0.539	0.411	0.549	0.46	0.405	0.431	0.373	0.397	0.39	0.288	0.467	0.49	0.495	0.487	0.607	0.263	0.205	0.223	0.214	0.189
NCI-H1299	0.971	0.952	1.02	1.03	0.943						1.01	0.992	0.959	0.942	0.967					
LOU-NH91	0.95	0.904	0.892	0.951	0.783	0.679	0.74	0.692	0.784	0.674	0.877	1.01	0.872	0.959	0.877	0.446	0.409	0.341	0.446	0.367
LCLC-103H	0.747	0.738	0.793	0.764	0.717	0.302	0.344	0.311	0.321	0.324	0.605	0.684	0.789	0.832	0.718	0.441	0.481	0.451	0.455	0.5
SW 1573	0.48	0.422	0.511	0.406	0.479	0.325	0.296	0.409	0.322	0.369	0.51	0.464	0.502	0.439	0.384	0.781	0.788	0.807	0.789	0.725
NCI-H1755	0.853	0.843	0.829	0.738	0.68	0.584	0.598	0.549	0.585	0.528	0.989	0.901	0.875	0.841	0.916	0.461	0.344	0.38	0.361	0.39
COR-L 105	0.649	0.696	0.712	0.584	0.557	0.514	0.45	0.569	0.572	0.412	0.695	0.793	1.03	0.688	0.859	1.1	1.08	0.857	1	0.81
NCI-H1793	0.786	0.507	0.612	0.414	0.502	0.367	0.256	0.311	0.25	0.309	0.929	0.937	0.867	0.882	0.78	0.667	0.64	0.754	0.604	0.68
EMC-BAC-2	0.463	0.453	0.526	0.418	0.472	0.528	0.508	0.506	0.499	0.519	0.48	0.58	0.438	0.484	0.496	0.468	0.43	0.428	0.464	0.463
H3255	0.508	0.536	0.561	0.547	0.499	0.369	0.382	0.326	0.374	0.354	0.612	0.67	0.524	0.624	0.574	0.54	0.71	0.487	0.562	0.539
PC-14	0.249	0.265	0.262	0.222	0.252	0.502	0.543	0.556	0.638	0.667	0.352	0.261	0.252	0.255	0.28	0.135	0.125	0.134	0.145	0.118
NCI-H661	0.743	0.764	0.765	0.748	0.76	0.308	0.279	0.288	0.288	0.287	0.64	0.799	0.724	0.843	0.708	0.878	0.919	0.955	0.955	0.853
HARA	0.658	0.917	0.868	0.629	0.711	0.563	0.422	0.426	0.424	0.543	0.687	1.55	0.727	1.1	0.762	0.216	0.234	0.258	0.3	0.221
COR-L23	0.368	0.326	0.405	0.315	0.334	0.436	0.4	0.445	0.485	0.457	0.318	0.343	0.32	0.365	0.322	0.22	0.198	0.186	0.218	0.189

Cell Line	relative viability ([1]; first compound 0.08 µM)	relative viability ([1]; first compound 0.253 µM)	relative viability ([1]; first compound 0.8 µM)	relative viability ([1]; first compound 2.53 µM)	relative viability ([1]; first compound 8 µM)	relative viability ([2]; first compound 0.08 µM)	relative viability ([2]; first compound 0.253 µM)	relative viability ([2]; first compound 0.8 µM)	relative viability ([2]; first compound 2.53 µM)	relative viability ([2]; first compound 8 µM)	relative viability ([3]; first compound 0.08 µM)	relative viability ([3]; first compound 0.253 µM)	relative viability ([3]; first compound 0.8 µM)	relative viability ([3]; first compound 2.53 µM)	relative viability ([3]; first compound 8 µM)	relative viability ([4]; first compound 0.08 µM)	relative viability ([4]; first compound 0.253 µM)	relative viability ([4]; first compound 0.8 µM)	relative viability ([4]; first compound 2.53 µM)	relative viability ([4]; first compound 8 µM)
SK-MES-1	0.65	0.691	0.744	0.554	0.465	0.71	0.66	0.706	0.719	0.574	0.863	0.816	0.858	0.651	0.611	0.932	0.925	0.948	0.842	0.693
NCI-H1395	0.452	0.438	0.411	0.399	0.393	0.398	0.435	0.401	0.436	0.409		0.469	0.479	0.458	0.446	0.73	0.766	0.709	0.604	0.724
NCI-H2170	0.625	0.522	0.625	0.526	0.608	0.421	0.413	0.464	0.431	0.362	0.624	0.617	0.571	0.687	0.528	0.263	0.252	0.213	0.271	0.268
NCI-H647	0.443	0.385	0.553	0.403	0.447	0.457	0.414	0.405	0.427	0.457		0.648	0.677	0.776	0.421	0.15	0.162	0.18	0.163	0.146
CAL-12T	0.705	0.709	0.72	0.678	0.747	0.629	0.55	0.62	0.56	0.661	0.724	0.834	0.824	0.856	0.651	1.12	0.976	1.21	1.25	1.17
NCI-H1703	0.449	0.462	0.389	0.396	0.255						0.422	0.417	0.682	0.336	0.362					
NCI-H1563						0.708	0.618	0.671	0.654	0.597						0.646	0.705	0.534	0.726	0.733
Calu-6	0.55	0.513	0.549	0.536	0.512						0.721	0.595	0.643	0.63	0.615					
NCI-H1623						0.543	0.602	0.62	0.566	0.555										
NCI-H727	0.681	0.732	0.545	0.679	0.745	0.635	0.621	0.537	0.486	0.51	0.829	0.795	0.704	0.756	0.825					
EBC-1	0.664	0.697	0.616	0.676	0.55						0.741	0.701	0.664	0.719	0.587					
NCI-H1648		0.452	0.802	0.764	0.842							0.689	0.841	0.31	0.722		0.883	0.811	0.722	0.674
A549	0.375	0.318	0.0939	0.301	0.422	0.198	0.138	0.185	0.209	0.152	0.275	0.208	0.314	0.375	0.379					
IA-LM	0.866	0.857	0.846	0.858	0.799						0.799	0.967	0.9	0.799	0.771					
ABC-1	0.8	0.86	0.908	0.781	0.876	0.228	0.228	0.19	0.217	0.253	0.856	1.22	1.06	0.701	0.829					
